Laboratory results reported in publication PMC9353477, “A Functional Screening Identifies a New Organic Selenium Compound Targeting Cancer Stem Cells: Role of c‐Myc Transcription Activity Inhibition in Liver Cancer” (Advanced Science, 2022).
pKd: −log10 of the molar value.

Experiments:
[1] = in vitro; conditions: human, l02 cells
Protocol: (§1) The L02 and Hep3B cells were seeded in 96‐well plates (5000 cells per well), 24 h later, the cells were treated with DMSO (Control group) or each small molecule compound (10 µM) for another 48 h. Then cells were treated with CCK‐8 reagent (Dojindo Laboratories, Kumamoto, Japan) and incubated at 37 °C for 2 h. Absorbance at 450 nm was measured by SpectraMax M2e (Molecular devices, San Jose, CA). Five replicate wells for each group and three independent experiments were conducted. The cell viability (%) of each small molecule compound was normalized as the ratio of each compound/DMSO in L02 and Hep3B cells, respectively. The relative cell viability (%) = The cell viability of L02 cells (%) − The cell viability of Hep3B cells (%). […] Given that the common concentration used in in vitro drug screening is 10 µM,^[ [24] ^] therefore, in the three rounds of drug screening, all small molecules are 10 µM. […] A) Flowchart of functional screening. B) Scattered plot showing the cell viability of each small molecule in human normal fetal liver cell L02 and liver cancer Hep3B cells, 48 h after treatment with each compound (10 µM). […] C) Images and statistical histogram of 3D tumor spheroids from Hep3B (cultured for 5 days, followed by treated with 16 candidate compounds (10 µM) for another 3 days). Tumor spheroid was quantified as the total cross‐sectional area of spheroid in each group (area mean), n = 3, Means ± SD, ^* p < 0.05, ^** p < 0.01, Student's t‐test. D) Statistical histogram of the CD13^+CD133^+ population, 48 h after treatment with each candidate compound (10 µM), analyzed by FCM, n = 3, Means ± SD; ^* p < 0.05, ^** p < 0.01; Student's t‐test. E) Representative images of tumorspheres from HCC cells that received a 48‐h pretreatment with each candidate compound (10 µM) before tumorsphere culture. Bars, 1000 µm. Tumorspheres were quantified as the total cross‐sectional area of tumorspheres in each group (area sum), and similarly hereafter unless indicated. Statistical histogram of the tumorsphere size. n = 3, means ± SD, each compound compared with DMSO, ^* p < 0.05, ^** p < 0.01, Student's t‐test. F) Heat maps of functional screening results, shown by the relative value of CD13^+CD133^+ population (D) and tumorsphere size (E), with normalizing the vehicle group as 100%. CU27 chemical structure is shown in the right.

[2] = test system: Hep3B; test: cells; conditions: 48 h; for viability at 10 µM: Homo sapiens, Hep3B, read-out: Cell viability of Hep3B (Mean of Hep3B/DMSO) (%)
Protocol: as §1

[3] = biological target: T1, truncated c-Myc protein (a.a 354-437) (Homo sapiens, UniProt P01106); test: SPR (Biacore S200, CM5 chip); type: binding
T1 construct: bHLH/LZ domain fragment, residues 354-437; purified by DEAE ion exchange; coupled to CM5 chip; no Max present
T1 sequence (P01106 369-452): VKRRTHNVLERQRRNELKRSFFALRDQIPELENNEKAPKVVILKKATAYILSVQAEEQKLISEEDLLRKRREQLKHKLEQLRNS

pKd [3] | Compound | viability at 48 h, 10 µM [1] [%] | viability at 10 µM [2] [%] | Cell viability of Hep3B (Mean of Hep3B/DMSO) (%) ([2]; [mut] cells, 10 µM)
– | CCn1c(=O)c(-c2cc[nH]n2)cc2c(C)nc(N)nc21 [Voxtalisib] | 26.9 | 23.1 | –
– | c1ccc2c(CCNc3ccc(Nc4ccncc4)cc3)c[nH]c2c1 [JNJ26854165] | 38 | 17.7 | –
– | Cc1c(CN2CCN(C(=O)[C@H](C)O)CC2)sc2c(N3CCOCC3)nc(-c3cnc(N)nc3)nc12 [Apitolisib] | 37.1 | 29.4 | –
– | CNC(=O)Nc1ccc(-c2nc(N3CC4CCC(C3)O4)c3cnn(C4CCC5(CC4)OCCO5)c3n2)cc1 [WYE-125132] | 45.1 | 27.2 | –
– | CCC(=O)N1CCN(c2ccc(-n3c(=O)ccc4cnc5ccc(-c6cnc7ccccc7c6)cc5c43)cc2C(F)(F)F)CC1 [Torin1] | – | 24 | –
– | NC1(Cc2ccc(Cl)cc2)CCN(c2ncnc3[nH]ccc23)CC1 [CCT128930] | – | 34.4 | –
– | O=C1NC(=O)/C(=C/c2ccc3nccc(-c4ccncc4)c3c2)S1 [GSK1059615] | 13.5 | 17.9 | –
– | Cc1[nH]nc2ccc(-c3cncc(OC[C@@H](N)Cc4ccccc4)c3)cc12 [A-674563] | – | 21.7 | –
– | O=S(=O)(NCCNC/C=C/c1ccc(Br)cc1)c1cccc2cnccc12 [H89 2HCL] | – | 57 | –
– | Cn1c(=O)n(-c2ccc(C(C)(C)C#N)cc2)c2c3cc(-c4cnc5ccccc5c4)ccc3ncc21 [Dactolisib] | 27.2 | – | 21.03
– | CCn1c(-c2nonc2N)nc2c(C#CC(C)(C)O)ncc(OC[C@H]3CCCNC3)c21 [GSK690693] | 49.3 | 63.8 | –
9.25 | C=CCNC(=[Se])NN=C(c1ccccc1)c1ncccn1 [4a, Phenyl‐2‐pyrimidinyl ketone 4‐allyl‐3‐amino selenourea] | 79.4 | – | –
– | CC(C)n1nc(-c2cc3cc(O)ccc3[nH]2)c2c(N)ncnc21 [Torkinib] | – | 44.8 | –
– | O=C1NCCc2[nH]c(-c3ccncc3)cc21 [PHA-767491] | 22.2 | – | –
– | COc1ccc(COc2cc3oc(=O)c4cc(C(C)O)ccc4c3cc2OC)cc1 (stereo not drawn) [Palomid529] | 58.1 | 62.4 | –
